# Measured values published in patent US20030082229A1, “Parenteral chlorambucil for treatment of malignant and autoimmune disease and methods of use” (priority 2001, published 2003).
# Entries after “also recorded” stand apart in the source; their conditions may differ. Like-named read-outs stand apart in the source and are kept apart here.
# Assays:
# [1] = physchem; type: physicochemical
# Procedure: The solubility of CLB was determined in several individual vehicles. Briefly, a known amount of CLB drug, formulated as a powder (Sigma, St Louis, Mo.), was equilibrated in the respective solvent at RT over 1-4 hours. An aliquot was removed, filtered, and diluted in methanol (MeOH) before high-pressure liquid chromatography (HPLC) to determine solubility at predetermined times. Based on the CLB solubility in each vehicle, different solvents were mixed according to the cosolvency principle in an attempt to enhance the stable solubility (Spiegel A. J., Noseworthy M. N.: Use of nonaqueous solvents in parenteral products. J. PHARM. SCI. 52:917-927, 1963; Yalkowsky S. H., Roseman T. J.: Solubilization of drugs by cosolvents. In: Yalkowsky S. H. (Ed.): TECHNIQUES OF SOLUBILIZATION OF DRUGS. pp. 91-134. Marcel Dekker Inc., New York, N.Y. 1981).
# An excess of CLB as a powder was added to DMSO, PEG, and PG at RT. Each mixture was placed in a dark environment and checked visually for up to 4 hours for evidence of solubilization. Samples of 1 ml were taken at various time intervals. The CLB concentration was then determined by HPLC after filtration through a 0.45 μm polytetrafluoroethylene (PTFE) membrane filter (Autovial®) fitted to a syringe assembly (Whatman Inc., Springfield Mill, Maidstone, Kent, UK).
# [2] = type: physicochemical; conditions: RT
# From the text: HPLC assay provides an accurate and sensitive detection system for low concentrations of CLB in solution, both protein-free mixtures and protein-containing fluids (i.e., blood plasma), utilizing absorbency detection in the ultraviolet (UV) spectrum. For the detection a wavelength of 254 nm was chosen on the basis of the inherent absorption maximum of the CLB molecule. The HPLC system was equipped with a Waters 717 plus AutoSampler (Waters, Milford, Mass.). The detector was a Waters Model 486 Tunable Absorbance Detector in sequence with a Waters Millennium™ software package for HPLC (Waters, Milford, Mass.). The column used was a Whatman C-18 EQC […] 125A μBondapak 4.6×216 mm. […] The analytic system was based on previously established extraction and HPLC experience with retinoic acid and with the bifunctional DNA-alkylating drug busulfan (Napoli J L, Pramanik B C, Williams J B et al: Quantification of retinoic acid by gas-liquid chromatography-mass spectrometry: total versus all-trans-retinoic acid in human plasma. J LIPID RES. 26: 387-392, 1985; Chow D S-L, Bhagwatwar H P, Phadungpojna S, Andersson B S: Stability-indicating high-performance liquid chromatographic assay of busulfan in aqueous and plasma samples. J CHROMATOGR B, 704: 277-288, 1997). […]
# [3] = Osmotic pressure measurement (micro-osmometer); type: physicochemical; conditions: CLB final concentration 1-5 mg/ml
# Procedure: It is desirable that a parenteral formulation of a pharmacologically active agent be isosmotic with blood. A hypertonic delivery system can be utilized if the drug formulation is infused through an indwelling (central) venous catheter and gradually diluted in a large blood volume. Osmotic pressures were measured with a micro-osmometer model 3MOplus osmometer (Advanced Instruments Inc., Needham Heights, Mass.). The instrument was calibrated using Advans™ intrinsic calibration standards (Advanced Instruments Inc.) in the range of 500-2000 mOsm/kg. The test solution was placed in a disposable cuvette, and the osmotic pressure readings were recorded. Triplicate measurements were carried out for each vehicle (without CLB), and six measurements were done with drug added. A two-tailed t-test was used to compare the differences in osmotic pressures of various solvent vehicles with and without the addition of CLB (Mann H. B., Whitney D. R.: On a test whether one of two random variables is stochastically larger than the other. ANN. MATH. STATIST. 18: 50-60, 1947).
# [4] = IV CLB pharmacology in beagle dogs; type: in vivo
# Procedure: The CLB given to beagle dogs was prepared as above. The same general design of the experiment was used, except that the dogs received a maximum dose of 7.5 mg/kg BW through a cephalic vein catheter, and the drug was delivered under general anesthesia.
# Blood samples (0.5-1.0 ml) were drawn in heparinized tubes at selected time points prior to the drug infusion (“blank”), and from 5 min to 6 hours after drug injection for determination of CLB concentrations. The samples were obtained through cardiac puncture under light CO2 anesthesia in the rats and through a prepositioned cephalic vein catheter in the dogs. The blood was centrifuged at 1,000×g for 10 min, and the plasma was removed and stored at−80° C. until extracted and assayed by HPLC.
compound,measurement,setting,value
"O=C(O)CCCc1ccc(N(CCCl)CCCl)cc1 [CLB, 4-[Bis(2-chloroethyl)amino]benzenebutanoic acid]",solubility,"[1]; DMSO, organic solvent or mixture, thermodynamic from solid, DMSO, RT, read-out: CLB solubility (maximum equilibrium concentration) in DMSO",> 100 mg/mL
same,solubility at 1 h,"[1]; EtOH, organic solvent or mixture, thermodynamic from solid, EtOH, within 1 hour at RT, read-out: CLB solubility (maximum equilibrium concentration) in EtOH",> 100 mg/mL
same,CLB solubility in aqueous solvents,"[1]; NS, 5% dextrose in water, soybean lipid emulsion (Intralipid)",virtually insoluble
same,"Solubilized CLB in PEG-400, PG, NS, 20% soybean lipid emulsion, 5% dextrose",[1]; RT,did not yield any significant concentrations of solubilized drug
same,solubility,"[1]; prototype EtOH/lipid solvent vehicle, aqueous with cosolvent or surfactant or cyclodextrin, thermodynamic from solid, EtOH/emulsified soybean oil vehicle, read-out: CLB solubility in prototype EtOH/lipid solvent vehicle",≥ 100 mg/mL
same,Time CLB stable at 100 mg/ml in EtOH/lipid solvent,"[2]; 100 mg/ml, prototype EtOH/lipid vehicle",more than 7 days
same,Drug still intact at 7 days,"[2]; EtOH/lipid solvent system, HPLC",> 95%
same,Change of osmolarity of complete vehicle by addition of CLB,[3],< 5%
same,"CLB plasma concentrations after IV injection, beagles",[4]; 7.5 mg/kg BW IV,"detectable, cytotoxic CLB plasma concentrations; also recorded: for several hours remained in the cytotoxic range; also recorded: maintained for several hours"
same,"Tolerability of injection, beagles",[4]; 7.5 mg/kg BW IV,well accepted
same,"Neurological effect, no premedication","[4]; 7.5 mg/kg BW IV, dogs",generalized seizure; also recorded: caused seizures
same,"Neurological effect, premedicated with diphenylhydantoin","[4]; 7.5 mg/kg BW IV, two dogs",tolerated the CLB administration without any obvious neurological effects
same,half-life,"[4]; dog, plasma, IV, this formulation, FIG. 7 beagle 7.5 mg/kg, read-out: Apparent terminal half-life",~1 h
